Test results reported in ChEMBL document CHEMBL5291721, “A preclinical secondary pharmacology resource illuminates target-adverse drug reaction associations of marketed drugs” (Nat Commun, 2023).

Experiments:
[1] = molecular target: Beta-1 adrenergic receptor (Homo sapiens, UniProt P08588); assay type: functional
Thromboxane A2 receptor = molecular target: T1, Thromboxane A2 receptor (Homo sapiens, UniProt P21731)
T1 sequence (P21731 whole entry): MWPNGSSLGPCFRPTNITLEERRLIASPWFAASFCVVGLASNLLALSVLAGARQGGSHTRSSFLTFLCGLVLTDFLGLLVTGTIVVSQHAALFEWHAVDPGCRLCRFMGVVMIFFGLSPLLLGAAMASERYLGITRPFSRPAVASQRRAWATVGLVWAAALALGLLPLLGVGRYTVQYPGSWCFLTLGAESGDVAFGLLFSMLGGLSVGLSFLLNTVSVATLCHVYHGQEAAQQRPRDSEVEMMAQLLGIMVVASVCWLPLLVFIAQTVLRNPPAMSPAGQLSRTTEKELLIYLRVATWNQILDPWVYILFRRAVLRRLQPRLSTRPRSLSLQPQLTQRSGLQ

[2] = molecular target: T2, Gastrin/cholecystokinin type B receptor (Homo sapiens, UniProt P32239)
T2 sequence (P32239 whole entry): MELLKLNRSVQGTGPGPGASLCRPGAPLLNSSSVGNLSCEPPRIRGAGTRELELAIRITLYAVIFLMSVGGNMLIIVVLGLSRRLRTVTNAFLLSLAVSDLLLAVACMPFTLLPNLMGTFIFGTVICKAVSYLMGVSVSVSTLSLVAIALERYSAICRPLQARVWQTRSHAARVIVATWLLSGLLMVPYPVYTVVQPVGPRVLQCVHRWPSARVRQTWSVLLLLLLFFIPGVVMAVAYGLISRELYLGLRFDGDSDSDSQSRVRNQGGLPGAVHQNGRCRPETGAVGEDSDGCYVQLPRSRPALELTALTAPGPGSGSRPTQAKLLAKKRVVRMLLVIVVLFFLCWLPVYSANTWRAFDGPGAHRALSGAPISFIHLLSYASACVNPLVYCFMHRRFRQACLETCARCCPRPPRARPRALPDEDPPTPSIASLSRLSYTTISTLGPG

Glucocorticoid receptor = molecular target: T3, Glucocorticoid receptor (Homo sapiens, UniProt P04150)
T3 sequence (P04150 whole entry): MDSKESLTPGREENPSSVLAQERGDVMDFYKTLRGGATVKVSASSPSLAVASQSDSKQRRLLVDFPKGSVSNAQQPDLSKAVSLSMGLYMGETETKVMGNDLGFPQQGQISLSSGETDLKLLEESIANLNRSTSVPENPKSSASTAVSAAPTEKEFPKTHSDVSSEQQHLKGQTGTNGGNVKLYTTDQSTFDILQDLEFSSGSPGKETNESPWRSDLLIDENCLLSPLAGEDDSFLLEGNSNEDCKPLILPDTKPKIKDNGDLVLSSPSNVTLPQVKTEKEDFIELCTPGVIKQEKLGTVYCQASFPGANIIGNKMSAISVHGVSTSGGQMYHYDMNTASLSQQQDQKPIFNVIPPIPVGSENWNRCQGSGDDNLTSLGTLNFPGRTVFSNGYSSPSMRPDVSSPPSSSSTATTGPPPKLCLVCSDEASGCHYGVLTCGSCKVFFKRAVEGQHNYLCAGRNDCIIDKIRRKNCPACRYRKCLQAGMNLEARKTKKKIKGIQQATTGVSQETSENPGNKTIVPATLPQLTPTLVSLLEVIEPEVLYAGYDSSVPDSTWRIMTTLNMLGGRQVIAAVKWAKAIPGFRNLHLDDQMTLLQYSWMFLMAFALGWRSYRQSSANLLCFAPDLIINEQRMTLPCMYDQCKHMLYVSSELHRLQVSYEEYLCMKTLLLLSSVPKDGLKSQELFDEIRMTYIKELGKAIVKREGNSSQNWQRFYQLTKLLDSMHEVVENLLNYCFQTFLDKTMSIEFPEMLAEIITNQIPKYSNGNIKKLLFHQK

[3] = molecular target: Kappa-type opioid receptor (Homo sapiens, UniProt P41145)
Adenosine receptor A2a = Adenosine receptor A2a (Homo sapiens, UniProt P29274)
[4] = molecular target: Neuronal acetylcholine receptor subunit alpha-4 (Homo sapiens, UniProt P43681)
[5] = molecular target: T4, 5-hydroxytryptamine receptor 1A (Homo sapiens, UniProt P08908); assay type: functional, cell-based
T4 sequence (P08908 whole entry): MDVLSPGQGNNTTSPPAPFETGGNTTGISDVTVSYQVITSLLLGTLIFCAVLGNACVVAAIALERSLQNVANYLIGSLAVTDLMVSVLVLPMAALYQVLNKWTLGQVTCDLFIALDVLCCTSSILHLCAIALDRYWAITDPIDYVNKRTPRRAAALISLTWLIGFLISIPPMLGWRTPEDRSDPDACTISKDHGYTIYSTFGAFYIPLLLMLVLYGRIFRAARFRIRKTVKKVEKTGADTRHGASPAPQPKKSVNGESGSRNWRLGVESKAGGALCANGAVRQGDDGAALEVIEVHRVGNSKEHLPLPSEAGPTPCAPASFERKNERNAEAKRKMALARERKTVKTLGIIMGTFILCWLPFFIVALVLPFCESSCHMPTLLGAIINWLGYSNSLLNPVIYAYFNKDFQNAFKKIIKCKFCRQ

[6] = molecular target: T5, Alpha-2B adrenergic receptor (Homo sapiens, UniProt P18089)
T5 sequence (P18089 whole entry): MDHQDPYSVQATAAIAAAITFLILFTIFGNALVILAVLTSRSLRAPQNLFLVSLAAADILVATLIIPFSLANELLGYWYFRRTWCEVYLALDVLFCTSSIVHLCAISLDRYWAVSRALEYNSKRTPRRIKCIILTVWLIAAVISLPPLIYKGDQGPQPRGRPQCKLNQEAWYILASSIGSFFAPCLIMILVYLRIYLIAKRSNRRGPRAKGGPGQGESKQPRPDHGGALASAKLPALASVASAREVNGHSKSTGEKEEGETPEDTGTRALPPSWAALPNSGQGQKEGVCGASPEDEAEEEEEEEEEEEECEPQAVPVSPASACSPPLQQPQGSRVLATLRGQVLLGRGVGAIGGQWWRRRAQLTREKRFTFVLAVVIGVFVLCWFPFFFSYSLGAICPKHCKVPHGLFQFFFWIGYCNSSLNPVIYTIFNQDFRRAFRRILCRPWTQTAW

[7] = molecular target: 5-hydroxytryptamine receptor 2A (Homo sapiens, UniProt P28223); assay type: functional, cell-based
Note: assay procedure not described here.

Chain of Neuronal acetylcholine receptor subunit alpha-4 (P43681 whole entry): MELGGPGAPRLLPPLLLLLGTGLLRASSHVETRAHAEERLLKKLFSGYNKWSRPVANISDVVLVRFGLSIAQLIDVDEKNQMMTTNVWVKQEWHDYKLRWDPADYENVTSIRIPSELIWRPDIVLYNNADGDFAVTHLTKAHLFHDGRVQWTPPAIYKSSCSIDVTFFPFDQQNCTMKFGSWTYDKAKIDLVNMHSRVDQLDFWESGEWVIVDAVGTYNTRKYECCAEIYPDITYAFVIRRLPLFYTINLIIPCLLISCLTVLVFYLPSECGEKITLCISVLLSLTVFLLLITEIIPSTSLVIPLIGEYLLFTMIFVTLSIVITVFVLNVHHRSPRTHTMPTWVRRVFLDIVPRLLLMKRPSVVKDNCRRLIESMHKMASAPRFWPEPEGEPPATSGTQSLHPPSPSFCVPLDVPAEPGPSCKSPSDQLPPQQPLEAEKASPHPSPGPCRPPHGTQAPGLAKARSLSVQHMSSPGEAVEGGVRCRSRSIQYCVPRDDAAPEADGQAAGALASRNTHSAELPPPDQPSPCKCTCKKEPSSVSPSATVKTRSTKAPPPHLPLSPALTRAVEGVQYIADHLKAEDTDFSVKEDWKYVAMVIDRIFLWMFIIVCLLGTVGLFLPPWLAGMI
Chain of Beta-1 adrenergic receptor (P08588 whole entry): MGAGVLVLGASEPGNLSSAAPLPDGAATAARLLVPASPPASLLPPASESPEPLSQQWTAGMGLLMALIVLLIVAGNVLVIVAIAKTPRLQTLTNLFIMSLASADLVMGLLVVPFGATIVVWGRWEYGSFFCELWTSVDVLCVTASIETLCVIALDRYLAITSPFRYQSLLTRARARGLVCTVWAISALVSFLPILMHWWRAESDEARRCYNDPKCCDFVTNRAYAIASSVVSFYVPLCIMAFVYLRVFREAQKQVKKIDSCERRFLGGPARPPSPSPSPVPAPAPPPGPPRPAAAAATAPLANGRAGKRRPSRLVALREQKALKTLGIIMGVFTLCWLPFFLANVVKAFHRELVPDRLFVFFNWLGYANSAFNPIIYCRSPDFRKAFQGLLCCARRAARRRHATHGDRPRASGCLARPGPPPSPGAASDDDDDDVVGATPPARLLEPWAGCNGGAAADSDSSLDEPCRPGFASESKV
Chain of Adenosine receptor A2a (P29274 whole entry): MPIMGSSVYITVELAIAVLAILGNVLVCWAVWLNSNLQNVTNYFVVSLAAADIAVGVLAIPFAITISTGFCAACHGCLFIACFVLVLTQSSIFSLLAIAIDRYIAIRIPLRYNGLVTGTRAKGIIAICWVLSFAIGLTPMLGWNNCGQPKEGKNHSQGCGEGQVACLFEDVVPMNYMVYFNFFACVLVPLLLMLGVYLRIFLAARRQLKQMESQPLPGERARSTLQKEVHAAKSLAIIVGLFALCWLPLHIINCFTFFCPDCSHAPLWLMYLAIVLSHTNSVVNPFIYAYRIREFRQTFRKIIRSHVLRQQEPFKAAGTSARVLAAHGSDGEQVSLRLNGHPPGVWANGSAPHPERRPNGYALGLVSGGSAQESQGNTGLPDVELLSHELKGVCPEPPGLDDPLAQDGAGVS
Chain of Kappa-type opioid receptor (P41145 whole entry): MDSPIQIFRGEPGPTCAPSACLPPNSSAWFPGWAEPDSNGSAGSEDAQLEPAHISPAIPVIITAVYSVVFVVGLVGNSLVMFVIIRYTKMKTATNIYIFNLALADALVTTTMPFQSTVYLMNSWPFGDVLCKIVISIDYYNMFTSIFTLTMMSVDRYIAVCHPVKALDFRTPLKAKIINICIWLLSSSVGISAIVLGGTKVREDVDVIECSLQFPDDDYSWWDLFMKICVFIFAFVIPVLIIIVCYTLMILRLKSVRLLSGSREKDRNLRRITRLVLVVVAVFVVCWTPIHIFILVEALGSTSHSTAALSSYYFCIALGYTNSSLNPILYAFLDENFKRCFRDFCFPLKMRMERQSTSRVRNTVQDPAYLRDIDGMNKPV
Chain of 5-hydroxytryptamine receptor 2A (P28223 whole entry): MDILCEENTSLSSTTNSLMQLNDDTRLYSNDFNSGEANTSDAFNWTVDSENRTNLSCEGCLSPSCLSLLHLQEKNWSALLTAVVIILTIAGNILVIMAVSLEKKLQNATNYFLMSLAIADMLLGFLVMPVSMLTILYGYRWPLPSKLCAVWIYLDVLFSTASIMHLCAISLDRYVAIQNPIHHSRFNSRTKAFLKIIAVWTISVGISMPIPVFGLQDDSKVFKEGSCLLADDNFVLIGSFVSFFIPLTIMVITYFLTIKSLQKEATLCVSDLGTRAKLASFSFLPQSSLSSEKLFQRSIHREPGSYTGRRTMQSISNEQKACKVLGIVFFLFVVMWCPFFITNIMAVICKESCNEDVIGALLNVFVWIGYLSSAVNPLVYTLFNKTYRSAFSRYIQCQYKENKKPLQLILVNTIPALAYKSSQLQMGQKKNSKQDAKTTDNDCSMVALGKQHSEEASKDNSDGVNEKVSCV

SMILES | AC50 [1] | AC50 (Thromboxane A2 receptor) | AC50 [2] | AC50 (Glucocorticoid receptor) | AC50 [3] | AC50 (Adenosine receptor A2a) | AC50 [4] | AC50 [5] | AC50 [6] | AC50 [7]
CNS(=O)(=O)Cc1ccc2[nH]cc(CCN(C)C)c2c1 | > 10 µM | > 30 µM | > 30 µM | > 30 µM | > 30 µM | > 30 µM | – | – | – | –
CC=CC(=O)N(CC)c1ccccc1C | > 10 µM | > 10 µM | – | > 10 µM | > 10 µM | > 10 µM | > 10 µM | > 10 µM | – | –
NCC[C@H](O)C(=O)N[C@@H]1C[C@H](N)[C@@H](O[C@H]2O[C@H](CN)[C@@H](O)[C@H](O)[C@H]2O)[C@H](O)[C@H]1O[C@H]1O[C@H](CO)[C@@H](O)[C@H](N)[C@H]1O [AMIKACIN] | > 10 µM | > 10 µM | – | > 10 µM | > 10 µM | > 10 µM | > 10 µM | > 10 µM | – | –
CCOC(=O)OC(C)OC1=C(C(=O)Nc2ccccn2)N(C)S(=O)(=O)c2ccccc21 (centres undefined) [AMPIROXICAM] | > 30 µM | > 30 µM | > 30 µM | > 30 µM | > 30 µM | > 30 µM | > 30 µM | > 30 µM | – | –
COc1ccc2c3c1O[C@H]1[C@@H](O)C=C[C@H]4[C@@H](C2)N(C)CC[C@@]341 [CODEINE] | 0.9 µM | > 30 µM | > 30 µM | – | – | > 30 µM | > 10 µM | > 10 µM | > 10 µM | –
C#C[C@]1(O)CC[C@H]2[C@@H]3CCC4=Cc5oncc5C[C@]4(C)[C@H]3CC[C@@]21C [DANAZOL] | > 10 µM | > 10 µM | – | 0.111 µM | > 10 µM | > 30 µM | > 10 µM | > 10 µM | – | –
Cn1c(=O)c2c(ncn2CC2OCCO2)n(C)c1=O [DOXOFYLLINE] | > 30 µM | > 30 µM | > 30 µM | – | > 30 µM | > 30 µM | > 30 µM | > 30 µM | – | –
Cc1ccc(S(=O)(=O)NC(=O)NN2CC3CCCC3C2)cc1 (centres undefined) [GLICLAZIDE] | > 10 µM | > 10 µM | – | – | > 10 µM | > 10 µM | > 10 µM | > 10 µM | – | –
CC(C)Cn1cnc2c(N)nc3ccccc3c21 [IMIQUIMOD] | > 10 µM | > 30 µM | – | > 10 µM | > 10 µM | 19.5 µM | > 10 µM | > 10 µM | – | –
Nc1nc(N)nc(-c2cc(Cl)ccc2Cl)n1 [IRSOGLADINE] | > 30 µM | > 30 µM | > 30 µM | > 30 µM | – | > 30 µM | > 30 µM | > 30 µM | – | –
CNC(C)CCC=C(C)C (centres undefined) [ISOMETHEPTENE] | > 30 µM | > 30 µM | > 30 µM | – | – | > 30 µM | > 30 µM | – | – | –
CC(C)(C)c1cc(C(C)(C)C)c(NC(=O)c2c[nH]c3ccccc3c2=O)cc1O [IVACAFTOR] | > 10 µM | 22 µM | > 30 µM | > 30 µM | > 10 µM | > 30 µM | > 10 µM | – | > 10 µM | –
C[C@](N)(Cc1ccc(O)c(O)c1)C(=O)O [METHYLDOPA] | > 10 µM | > 10 µM | – | – | > 10 µM | > 30 µM | > 10 µM | > 10 µM | – | –
O=C(NCCN1CCOCC1)c1ccc(Cl)cc1 [MOCLOBEMIDE] | > 10 µM | > 10 µM | – | – | > 10 µM | > 10 µM | > 10 µM | > 10 µM | – | –
CCCc1nc(C(C)(C)O)c(C(=O)OCc2oc(=O)oc2C)n1Cc1ccc(-c2ccccc2-c2nnn[nH]2)cc1 [OLMESARTAN MEDOXOMIL] | > 10 µM | > 50 µM | > 50 µM | – | > 10 µM | > 10 µM | > 10 µM | > 10 µM | > 10 µM | –
N#Cc1ccc([C@H]2CCc3cncn32)c(F)c1 [OSILODROSTAT] | > 10 µM | > 10 µM | > 10 µM | – | > 10 µM | > 10 µM | > 10 µM | – | > 10 µM | –
CCCN(CCC)C(=O)C(CCC(=O)O)NC(=O)c1ccccc1 (centres undefined) [PROGLUMIDE] | > 30 µM | > 30 µM | – | > 30 µM | > 10 µM | > 30 µM | > 30 µM | > 10 µM | – | –
CCN(CC)C(=O)N[C@H]1C[C@@H]2c3cccc4[nH]cc(c34)C[C@H]2N(C)C1 [TERGURIDE] | 3.2 µM | – | > 30 µM | – | > 30 µM | > 30 µM | > 30 µM | 0.18 µM | – | –
C/C(O)=C(\C#N)C(=O)Nc1ccc(C(F)(F)F)cc1 [TERIFLUNOMIDE] | > 30 µM | – | – | – | – | > 30 µM | > 30 µM | > 30 µM | > 30 µM | 28 µM
C[C@]12CC[C@H]3[C@@H](CCC4=CC(=O)CC[C@@]43C)[C@@H]1CC[C@@H]2O [TESTOSTERONE] | > 10 µM | > 10 µM | – | 0.246 µM | > 10 µM | > 10 µM | > 10 µM | > 10 µM | – | –
CN1CCN(CC/C=C2/c3ccccc3Sc3ccc(S(=O)(=O)N(C)C)cc32)CC1 [THIOTHIXENE] | > 10 µM | > 30 µM | > 30 µM | – | 11.6 µM | 11.6 µM | – | – | – | –
CN1C(=O)OC(C)(C)C1=O [TRIMETHADIONE] | > 10 µM | > 10 µM | – | > 10 µM | > 10 µM | > 10 µM | > 10 µM | > 10 µM | – | –
CC(=O)O[C@H]1C[C@@H]2CC[C@@H]3[C@H](CC[C@@]4(C)[C@H]3C[C@H]([N+]3(C)CCCCC3)[C@@H]4OC(C)=O)[C@@]2(C)C[C@@H]1N1CCCCC1 [VECURONIUM] | > 30 µM | > 30 µM | > 30 µM | – | > 30 µM | > 30 µM | > 30 µM | > 30 µM | – | –
